Each structure is given as a SMILES string.

Data on three compounds can be found in PMC7528081, “The electrophysiological effect of cannabidiol on hERG current and in guinea-pig and rabbit cardiac preparations” (Scientific Reports, 2020).

The target in this experiment is T1, hERG potassium channel (Homo sapiens, UniProt Q12809).
T1 construct: gene KCNH2
T1 sequence (Q12809 whole entry): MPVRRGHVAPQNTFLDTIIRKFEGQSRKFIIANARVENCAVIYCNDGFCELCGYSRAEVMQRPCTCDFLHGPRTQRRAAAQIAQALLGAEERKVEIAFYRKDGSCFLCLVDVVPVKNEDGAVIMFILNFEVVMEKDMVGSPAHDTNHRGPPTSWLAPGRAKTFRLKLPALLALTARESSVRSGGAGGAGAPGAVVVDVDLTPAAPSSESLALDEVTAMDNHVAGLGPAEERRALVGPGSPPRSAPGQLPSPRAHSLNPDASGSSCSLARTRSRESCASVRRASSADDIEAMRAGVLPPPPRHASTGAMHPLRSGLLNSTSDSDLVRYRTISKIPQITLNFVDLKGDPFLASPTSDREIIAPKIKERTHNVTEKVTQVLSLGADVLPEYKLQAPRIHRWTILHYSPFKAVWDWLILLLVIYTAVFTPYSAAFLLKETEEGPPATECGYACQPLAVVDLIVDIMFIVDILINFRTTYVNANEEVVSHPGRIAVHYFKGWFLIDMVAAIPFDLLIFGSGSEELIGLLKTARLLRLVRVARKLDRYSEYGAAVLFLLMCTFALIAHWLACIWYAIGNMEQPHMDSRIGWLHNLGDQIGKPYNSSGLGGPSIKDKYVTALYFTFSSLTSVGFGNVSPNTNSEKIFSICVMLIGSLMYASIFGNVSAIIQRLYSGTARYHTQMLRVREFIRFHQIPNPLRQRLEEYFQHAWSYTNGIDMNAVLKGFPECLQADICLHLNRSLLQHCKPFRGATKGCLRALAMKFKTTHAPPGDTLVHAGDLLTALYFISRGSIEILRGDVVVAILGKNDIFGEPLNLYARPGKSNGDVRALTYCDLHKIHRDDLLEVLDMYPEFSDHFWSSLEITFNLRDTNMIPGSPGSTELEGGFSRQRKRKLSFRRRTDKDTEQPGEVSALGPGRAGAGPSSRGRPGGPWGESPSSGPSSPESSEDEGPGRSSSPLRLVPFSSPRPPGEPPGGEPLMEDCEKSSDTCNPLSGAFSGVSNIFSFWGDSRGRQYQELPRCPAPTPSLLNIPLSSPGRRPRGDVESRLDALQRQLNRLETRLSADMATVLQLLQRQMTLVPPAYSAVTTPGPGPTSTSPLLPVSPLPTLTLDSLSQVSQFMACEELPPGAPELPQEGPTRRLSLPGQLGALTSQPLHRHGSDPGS
In words: automated whole-cell patch clamp (Patchliner), HEK […] cells expressing hERG, room temperature. The class given is cell-based.
One may read the IC50 as the concentration that gives 50% inhibition. A higher IC50 goes with lower potency. In the case of `C=C(C)[C@@H]1CCC(C)=C[C@H]1c1c(O)cc(CCCCC)cc1O` [cannabidiol], inhibition was half-maximal at 2.07 ± 0.12 µM (IC50).
For the compound `CCCCCc1cc(O)c2c(c1)OC(C)(C)[C@@H]1CCC(C)=C[C@@H]21` [tetrahydrocannabinol], the IC50 came to 10.3 ± 0.55 µM.
In turn, `CCCCCc1cc(O)c2c(c1)OC(C)(C)[C@@H]1CCC(C(=O)O)=C[C@@H]21` [11-nor-9-carboxy-tetrahydrocannabinol] displayed a concentration for half-maximal inhibition (IC50) of 65.4 ± 3.82 µM.
